“Also recorded” adds a separate entry of the source.
Assays:
CYP2C8 = system: CYP2C8; design: method as in PMID 25048520, PMID 22752008; conditions: human liver microsomes, competitive; read-out: Ki, CYP2C8-mediated paclitaxel 6α-hydroxylation; cited from earlier work
UGT1A3 = target: T1, UGT1A3 (Homo sapiens, UniProt P35503); assay: Inhibition of UGT1A3-catalyzed chenodeoxycholic acid 24-acyl-β-glucuronidation in ultrapooled human liver microsomes; assay type: in vitro ADME
T1 construct: ultrapooled human liver microsomes (0.2 mg/mL); from tissue; host or cells: human liver microsomes (ultrapooled)
T1 sequence (P35503 29-534): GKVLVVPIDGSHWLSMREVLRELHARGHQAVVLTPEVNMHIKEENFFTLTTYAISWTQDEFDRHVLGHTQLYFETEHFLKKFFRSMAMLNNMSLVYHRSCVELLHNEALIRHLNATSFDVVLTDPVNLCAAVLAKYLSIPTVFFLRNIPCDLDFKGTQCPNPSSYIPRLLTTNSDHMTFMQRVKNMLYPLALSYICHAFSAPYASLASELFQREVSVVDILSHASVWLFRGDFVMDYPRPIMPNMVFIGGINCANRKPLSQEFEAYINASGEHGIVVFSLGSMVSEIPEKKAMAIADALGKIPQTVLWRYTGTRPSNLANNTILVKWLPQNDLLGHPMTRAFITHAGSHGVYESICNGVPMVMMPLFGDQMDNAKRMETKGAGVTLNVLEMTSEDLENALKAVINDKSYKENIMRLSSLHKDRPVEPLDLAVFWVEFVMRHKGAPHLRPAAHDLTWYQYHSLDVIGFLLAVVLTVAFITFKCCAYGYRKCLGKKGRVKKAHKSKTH
Description: (§1) The inhibitory potential of mertansine on UGT1A1, UGT1A3, UGT1A4, UGT1A6, UGT1A9, and UGT2B7 activities was evaluated using liquid chromatography–tandem mass spectrometry (LC-MS/MS) with a cocktail of UGT substrates and ultrapooled human liver microsomes. Each incubation mixture was prepared to a final volume of 100 μL as follows: ultrapooled human liver microsomes (0.2 mg/mL), 5 mM UDPGA, 10 mM magnesium chloride, alamethicin (25 μg/mL), 50 mM Tris buffer (pH 7.4), various concentrations of mertansine in methanol (final concentrations of 0.01–50 μM), and the cocktail sets of UGT enzyme-specific substrates. Two cocktail sets were used: set A contained 0.5 μM SN-38 for UGT1A1, 2 μM chenodeoxycholic acid for UGT1A3, and 0.5 μM trifluoperazine for UGT1A4; and set B contained 1 μM N-acetylserotonin for UGT1A6, 0.2 μM mycophenolic acid for UGT1A9, and 1 μM naloxone for UGT2B7. The reactions were initiated by adding UDPGA and incubated in a shaking water bath for 60 min at 37 °C. […] Next, 50 μL of each supernatant of sets A and B was mixed, and aliquots (5 μL) were analyzed using LC-MS/MS. […]
(§2) The LC-MS/MS system was comprised of an Agilent 6495 triple quadrupole mass spectrometer coupled with an Agilent 1290 Infinity system (Agilent Technologies, Wilmington, DE, USA). […] The electrospray ionization (ESI) source settings in both positive and negative ion modes were as follows: gas temperature, 200 °C; gas flow, 14 L/min; nebulizer, 40 psi; sheath gas temperature, 380 °C; sheath gas flow, 11 L/min; capillary voltage, 4500 V; and nozzle voltage, 500 V. Each metabolite was quantified via selected reaction monitoring in the negative ion mode (chenodeoxycholic acid 24-acyl-β-glucuronide, m/z 567.1 to 391.2; mycophenolic acid β-D-glucuronide, m/z 495.0 to 319.0; propofol glucuronide (IS), m/z 353.0 to 177.0) and in the positive ion mode (SN-38 glucuronide, m/z 568.9 to 392.9; trifluoperazine N-β-D-glucuronide, m/z 583.9 to 407.9; N-acetylserotonin β-D-glucuronide, m/z 394.0 to 219.0; naloxone 3-β-D-glucuronide, m/z 503.9 to 309.9; meloxicam (IS), m/z 351.9 to 115.0). […]

UGT1A1 = target: T2, UGT1A1 (Homo sapiens, UniProt P22309); assay: Inhibition of UGT1A1-catalyzed SN-38 glucuronidation in ultrapooled human liver microsomes; assay type: in vitro ADME
T2 construct: ultrapooled human liver microsomes (0.2 mg/mL); from tissue; host or cells: human liver microsomes (ultrapooled)
T2 sequence (P22309 26-533): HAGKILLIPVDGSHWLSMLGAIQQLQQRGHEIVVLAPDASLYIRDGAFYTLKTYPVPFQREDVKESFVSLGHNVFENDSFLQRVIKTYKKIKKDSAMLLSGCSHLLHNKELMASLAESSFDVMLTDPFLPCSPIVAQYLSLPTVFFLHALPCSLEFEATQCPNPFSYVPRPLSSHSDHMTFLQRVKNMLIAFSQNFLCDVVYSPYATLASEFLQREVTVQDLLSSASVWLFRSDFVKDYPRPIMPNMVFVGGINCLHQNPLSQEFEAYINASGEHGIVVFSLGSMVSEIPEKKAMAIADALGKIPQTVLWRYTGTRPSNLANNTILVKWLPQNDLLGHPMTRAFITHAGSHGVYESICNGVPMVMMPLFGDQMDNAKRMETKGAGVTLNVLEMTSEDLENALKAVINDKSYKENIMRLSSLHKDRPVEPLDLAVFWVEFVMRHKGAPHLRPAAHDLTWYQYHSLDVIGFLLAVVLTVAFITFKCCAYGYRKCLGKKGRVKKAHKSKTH
Description: as §1, §2

[1] = human liver microsomes, Dixon plot

Structure (SMILES): COc1cc2cc(c1Cl)N(C)C(=O)CC(OC(=O)C(C)N(C)C(=O)CCS)C1(C)OC1C(C)C1CC(O)(NC(=O)O1)C(OC)C=CC=C(C)C2 (stereo not shown) [mertansine, Mertansine]
- Ki (CYP2C8): 11 µM
- Inhibition Mode, UGT1A3 (UGT1A3; [1]): competitively inhibited; also recorded: competitive inhibitor
- Ki (UGT1A3; human liver microsomes, chenodeoxycholic acid 0.5–5 µM): 4.3 µM
- IC50 (UGT1A3; ultrapooled human liver microsomes, 2 µM chenodeoxycholic acid (cocktail)): 6.4 µM
- Inhibition Mode, UGT1A1 (UGT1A1; [1]): noncompetitively inhibited; also recorded: noncompetitive inhibitor
- Ki (UGT1A1; human liver microsomes, SN-38 0.2–2 µM): 13.5 µM
- IC50 (UGT1A1; ultrapooled human liver microsomes, 0.5 µM SN-38 (cocktail)): 16.2 µM

— article PMC7150891, “Mertansine Inhibits mRNA Expression and Enzyme Activities of Cytochrome P450s and Uridine 5′-Diphospho-Glucuronosyltransferases in Human Hepatocytes and Liver Microsomes” (Pharmaceutics, 2020)
